Measurements from patent US11884932B2, “In vitro production of medial ganglionic eminence precursor cells” (The Regents of the University of California, priority 2013, dated 2024).

What was measured:
[1] = system: HES3 NKX2.1-GFP hESC line with i12b-RFP; test: Flow cytometry of NKX2.1-GFP and i12b-RFP double positive cells; format: cell-based, human; details: B27+5F cultures treated with DAPT
Excerpt: The intergenic DLX½i12b (422) enhancer driving the mCherry RFP reporter gene (i12b-RFP) was delivered into the HES3 NKX2.1-GFP hESC line using lentivirus, and two stable cell lines were generated (#5 and #10) as confirmed by genomic DNA PCR for mCherry. (FIG. 22, F).
The modified lines were differentiated using the B27±5F method, and i12b-RFP expression was detected after three weeks of differentiation, along with NKX2.1. (FIG. 22, G). i12b-RFP+ cells in EBs co-expressed GABAergic neuron marker DLX2 and neuronal marker TUJ1. (FIGS. 22, H and I).
Flow cytometry analysis confirmed that many cells derived with the B27+5F method co-expressed both NKX2.1-GFP and i12b-RFP (FIG. 22, J).

SCID mouse cortex = test: Tumor incidence after injection of hESC-derived NKX2.1-GFP+ cells into newborn SCID mouse cortex; format: in vivo
Experimental: Excess medium was removed from sorted cell pellets to create concentrated cell suspensions of 1000 cells/nl. Cells were loaded into a beveled glass micropipette (Wiretrol 5 ul, Drummond Scientific Company) mounted on a stereotactic hydraulic injector. P2 CB.17-SCID pups (Charles River) were anesthetized through hypothermia and positioned in a clay head mold on the injector platform. 10-100,000 cells per injection site were delivered transcranially into the right cerebral cortex using the following coordinates: 0.9 mm from the midline (sagittal sinus), and 2.6 mm from lambda. The depth of injection was 0.45 mm from the skin surface. All transplantation experiments adhered to approved UCSF Institutional Animal Care and Use Committee protocols.
Initially, day 35 monolayer cultures were sorted for NKX2.1-GFP+, without PSANCAM selection, and injected into newborn SCID mouse cortex. However, within 4 months, injected mouse brains (12/12 mice) contained tumor-like overgrowths at the injection site and/or at the pial surface near the injection tract (data not shown). These were not pluripotent cell-derived teratomas; OCT4+ cells or polarized neuroepithelial rosettes were not found. […] But, focal growths (˜1 focus/2500 plated cells, n=3) were occasionally detected in extended co-cultures, consistent with tumor formation in vivo. […]

C[C@H](NC(=O)Cc1cc(F)cc(F)c1)C(=O)N[C@H](C(=O)OC(C)(C)C)c1ccccc1 [DAPT]
double positive (NKX2.1-GFP and i12b-RFP) population of MGE derived interneurons [1]: marked increase | tumor incidence (SCID mouse cortex; brief addition of DAPT prior to injection, low-density monolayer culture, 3/9 mice): 33% | in vivo tumor incidence (SCID mouse cortex; day 35 cultures pretreated with DAPT and FACS-sorted for both NKX2.1-GFP+ and PSA-NCAM+ cells): 0/6
